EC50 and Emax data for 20 compounds are collected here from patent US9822130B2, “Triazolo-pyrazinyl derivatives useful as soluble guanylate cyclase activators” (Merck Sharp & Dohme Corp., priority 2014, dated 2017).

For one assay, the target named is T1, sGC α1/β1 heterodimer stably expressed in CHO-K1 cell line (CHO-K1/sGC) (Homo sapiens, UniProt Q02108+Q02153).
T1 construct: expressed in transfected cells
T1 sequence (Q02108 1-690): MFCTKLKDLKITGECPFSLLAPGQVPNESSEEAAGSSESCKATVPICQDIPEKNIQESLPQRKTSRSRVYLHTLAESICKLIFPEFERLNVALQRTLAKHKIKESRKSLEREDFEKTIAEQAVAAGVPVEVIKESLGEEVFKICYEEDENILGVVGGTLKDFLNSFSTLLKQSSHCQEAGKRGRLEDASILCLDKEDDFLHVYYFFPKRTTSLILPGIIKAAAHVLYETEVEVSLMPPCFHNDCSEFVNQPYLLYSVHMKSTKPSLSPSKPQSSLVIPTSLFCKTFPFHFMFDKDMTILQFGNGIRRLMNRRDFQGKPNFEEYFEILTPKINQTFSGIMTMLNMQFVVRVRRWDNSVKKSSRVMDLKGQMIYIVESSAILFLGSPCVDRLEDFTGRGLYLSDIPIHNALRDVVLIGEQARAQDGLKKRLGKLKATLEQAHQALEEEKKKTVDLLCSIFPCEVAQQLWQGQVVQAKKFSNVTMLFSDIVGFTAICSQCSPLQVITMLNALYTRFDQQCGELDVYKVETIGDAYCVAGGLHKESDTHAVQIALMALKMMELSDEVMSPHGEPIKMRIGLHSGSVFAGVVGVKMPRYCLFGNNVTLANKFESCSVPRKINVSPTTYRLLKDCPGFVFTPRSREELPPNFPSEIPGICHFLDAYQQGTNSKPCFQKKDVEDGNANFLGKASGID
T1 sequence (Q02153 1-619): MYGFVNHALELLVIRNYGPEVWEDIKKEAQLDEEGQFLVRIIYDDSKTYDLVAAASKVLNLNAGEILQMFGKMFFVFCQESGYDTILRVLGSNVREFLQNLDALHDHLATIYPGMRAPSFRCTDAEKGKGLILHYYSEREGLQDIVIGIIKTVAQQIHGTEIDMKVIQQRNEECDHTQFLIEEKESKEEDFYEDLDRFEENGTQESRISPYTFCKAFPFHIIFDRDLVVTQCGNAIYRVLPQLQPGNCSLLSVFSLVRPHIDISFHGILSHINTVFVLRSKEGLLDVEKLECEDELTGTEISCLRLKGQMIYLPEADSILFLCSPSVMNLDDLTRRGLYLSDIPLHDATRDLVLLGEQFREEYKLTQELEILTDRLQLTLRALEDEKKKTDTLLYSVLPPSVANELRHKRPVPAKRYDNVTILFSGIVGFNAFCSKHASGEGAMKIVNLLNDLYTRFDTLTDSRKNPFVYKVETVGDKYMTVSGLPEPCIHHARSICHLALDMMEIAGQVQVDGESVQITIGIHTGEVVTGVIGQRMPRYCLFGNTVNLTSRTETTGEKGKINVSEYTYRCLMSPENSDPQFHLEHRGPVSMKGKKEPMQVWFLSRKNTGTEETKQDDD
The experiment in a line: Cell-based sGC Functional Assay (CASA Assay), cGMP generation. Conditions: CHO-K1/sGC cells, 1 hr at 37° C., cGMP by HTRF, 4P fit; presence or absence of 1 μM DETA-NO not given; read-out: IP (nM) (inflection point). A digest of the protocol:
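Readout is HTRF cGMP in lysates, normalised to the maximal response of reference sGC activator Compound A (100%), with a 4P fit giving IP and fold induction. Cells were CHO-K1/sGC (human α1/β1) in EBSS buffer with IBMX, incubated 1 hr at 37° C with compound. Run with and without 1 μM DETA-NO; final DMSO 2.5%.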
A general note: Time-resolved FRET reads energy transfer from a long-lived donor to a nearby acceptor.
Consider `Cc1nc2c(CCC(F)(F)C(F)(F)F)nc(-c3nc(N)c4c(n3)NC(=O)C4(C)c3ccc(Cl)c(F)c3)cn2n1` (stereo not drawn) [Example 90B, 4-amino-5-(4-chloro-3-fluorophenyl)-5-methyl-2-(2-methyl-8-(3,3,4,4,4-pentafluorobutyl)-[1,2,4]triazolo[1,5-a]pyrazin-6-yl)-5H-pyrrolo[2,3-d]pyrimidin-6(7H)-one], for which the EC50 is 36.6 nM.

Consider `Nc1nc(-c2cn3ncnc3c(CCCC(F)(F)F)n2)nc2c1C(c1ccc(O)cn1)(C1CC1)C(=O)N2` (stereo not drawn) [Example 112A, 4-amino-5-cyclopropyl-5-(5-hydroxypyridin-2-yl)-2-(8-(4,4,4-trifluorobutyl)-[1,2,4]triazolo[1,5-a]pyrazin-6-yl)-5H-pyrrolo[2,3-d]pyrimidin-6(7H)-one], for which the EC50 was determined as 212 nM.

In the case of `CC1(c2ccc(F)cn2)C(=O)Nc2nc(-c3cn4ncnc4c(CCCC(F)(F)F)n3)ncc21` (stereo not drawn) [Example 176B], the EC50 was determined as 526 nM.

`CC1(c2ccc(C(F)(F)F)cc2)C(=O)Nc2nc(-c3cn4ncnc4c(CCCC(F)(F)F)n3)nc(N)c21` (stereo not drawn) [Example 24B, 4-amino-5-methyl-2-(8-(4,4,4-trifluorobutyl)-[1,2,4]triazolo[1,5-a]pyrazin-6-yl)-5-(4-(trifluoromethyl)phenyl)-5H-pyrrolo[2,3-d]pyrimidin-6(7H)-one]: the EC50 was determined as 27.1 nM.

For the compound `Cc1ccc(C2(C)C(=O)Nc3nc(-c4cn5ncnc5c(CCCC(F)(F)F)n4)nc(O)c32)nc1` (stereo not drawn) [Example 149B, 4-hydroxy-5-methyl-5-(5-methylpyridin-2-yl)-2-(8-(4,4,4-trifluorobutyl)-[1,2,4]triazolo[1,5-a]pyrazin-6-yl)-5H-pyrrolo[2,3-d]pyrimidin-6(7H)-one], the EC50 amounted to 990 nM.

Regarding `CCCCc1nc(-c2nc(N)c3c(n2)NC(=O)C3(C)c2ccc(Cl)cc2)cn2ncnc12` (stereo not drawn) [Example 63A, 4-amino-2-(8-butyl-[1,2,4]triazolo[1,5-a]pyrazin-6-yl)-5-(4-chlorophenyl)-5-methyl-5H-pyrrolo[2,3-d]pyrimidin-6(7H)-one], the EC50 was found to be 21.9 nM.

`CC1(c2cccc(F)c2)C(=O)Nc2nc(-c3cn4ncnc4c(CCC(F)(F)C(F)(F)F)n3)nc(N)c21` (stereo not drawn) [Example 14B, 4-amino-5-(3-fluorophenyl)-5-methyl-2 (8-(3,3,4,4,4-pentafluorobutyl)-[1,2,4]triazolo[1,5-a]pyrazin-6-yl)-5H-pyrrolo[2,3-d]pyrimidin-6(7H)-one]: the EC50 was found to be 5.5 nM.

As for `Cc1cnc(C2(C3CC3)C(=O)Nc3nc(-c4cn5ncnc5c(CCC(F)(F)C(F)(F)F)n4)nc(N)c32)cn1` (racemic) [Example 21B, 4-amino-5-cyclopropyl-5-(5-methylpyrazin-2-yl)-2-(8-(3,3,4,4,4-pentafluorobutyl)-[1,2,4]triazolo[1,5-a]pyrazin-6-yl)-5H-pyrrolo[2,3-d]pyrimidin-6(7H)-one], the EC50 was 43.1 nM.

On to `CC1(c2ccc(C(F)(F)F)cn2)C(=O)Nc2nc(-c3cn4ncnc4c(CCCC(F)(F)F)n3)nc(N)c21` (stereo not drawn) [Example 25B, 4-amino-5-methyl-2-(8-(4,4,4-trifluorobutyl)-[1,2,4]triazolo[1,5-a]pyrazin-6-yl)-5-(5-(trifluoromethyl)pyridin-2-yl)-5H-pyrrolo[2,3-d]pyrimidin-6(7H)-one], for which the EC50 was 27 nM.

As for `NC(=O)c1nc(-c2cn3ncnc3c(CCCC(F)(F)F)n2)nc2c1C(c1ccc(C(F)(F)F)cn1)(C1CC1)C(=O)N2` (stereo not drawn) [Example 178A], the EC50 stood at 199 nM.

For the compound `CC1(c2ccc(Cl)cc2)C(=O)Nc2nc(-c3cn4ncnc4c(CCCC(F)(F)F)n3)nc(O)c21` (stereo not drawn) [Example 142A, 5-(4-chlorophenyl)-4-hydroxy-5-methyl-2-(8-(4,4,4-trifluorobutyl)-[1,2,4]triazolo[1,5-a]pyrazin-6-yl)-5H-pyrrolo[2,3-d]pyrimidin-6(7H)-one], the EC50 was found to be 207 nM.

As for `CC1(c2cncc(F)c2)C(=O)Nc2nc(-c3cn4ncnc4c(CCC(F)(F)C(F)(F)F)n3)nc(N)c21` (stereo not drawn) [Example 9A, 4-amino-5-(5-fluoropyridin-3-yl)-5-methyl-2-(8-(3,3,4,4,4-pentafluorobutyl)-[1,2,4]triazolo[1,5-a]pyrazin-6-yl)-5H-pyrrolo[2,3-d]pyrimidin-6(7H)-one], the EC50 stood at 63 nM.

Regarding `CC1(c2ccc(F)c(F)c2)C(=O)Nc2nc(-c3cn4ncnc4c(CCC(F)(F)C(F)(F)F)n3)nc(O)c21` (stereo not drawn) [Example 169B, 5-(3,4-Difluorophenyl)-4-hydroxy-5-methyl-2-(8-(3,3,4,4,4-pentafluorobutyl)-[1,2,4]triazolo[1,5-a]pyrazin-6-yl)-5,7-dihydro-6H-pyrrolo[2,3-d]pyrimidin-6-one], the EC50 came to 111 nM.

For the compound `CC1(c2ccc(C#N)cn2)C(=O)Nc2nc(-c3cn4ncnc4c(CCC(F)(F)C(F)(F)F)n3)nc(N)c21` (stereo not drawn) [Example 18A, 6-(4-amino-5-methyl-6-oxo-2-(8-(3,3,4,4,4-pentafluorobutyl)-[1,2,4]triazolo[1,5-a]pyrazin-6-yl)-6,7-dihydro-5H-pyrrolo[2,3-d]pyrimidin-5-yl)nicotinonitrile], the EC50 is 38.6 nM.

In the case of `Nc1nc(-c2cn3ncnc3c(CCC(F)(F)C(F)(F)F)n2)nc2c1C(c1cn(C3CC3)nn1)(C1CC1)C(=O)N2` (stereo not drawn) [Example 96B, 4-amino-5-cyclopropyl-5-(1-cyclopropyl-1H-1,2,3-triazol-4-yl)-2-(8-(3,3,4,4,4-pentafluorobutyl)-[1,2,4]triazolo[1,5-a]pyrazin-6-yl)-5H-pyrrolo[2,3-d]pyrimidin-6(7H)-one], the EC50 was 134 nM.

On to `CCCCc1nc(-c2nc(N)c3c(n2)NC(=O)[C@@]3(C)c2ccc(F)cc2)cn2ncnc12` [Example 60A, (S)-4-amino-2-(8-butyl-[1,2,4]triazolo[1,5-a]pyrazin-6-yl)-5-(4-fluorophenyl)-5-methyl-5,7-dihydro-6H-pyrrolo[2,3-d]pyrimidin-6-one], for which the EC50 is 22.6 nM.

As to `CC1(c2ccc(F)c(F)c2)C(=O)Nc2nc(-c3cn4ncnc4c(CCC(F)(F)F)n3)nc(N)c21` (stereo not drawn) [Example 84B, 4-amino-5-(3,4-difluorophenyl)-5-methyl-2-(8-(3,3,3-trifluoropropyl)-[1,2,4]triazolo[1,5-a]pyrazin-6-yl)-5H-pyrrolo[2,3-d]pyrimidin-6(7H)-one], the EC50 turned out to be 55.7 nM.

With `Nc1nc(-c2cn3ncnc3c(CCC(F)(F)F)n2)nc2c1C(c1ccc(C(F)(F)F)cn1)(C1CC1)C(=O)N2` (stereo not drawn) [Example 80A, 4-amino-5-cyclopropyl-5-(5-(trifluoromethyl)pyridin-2-yl)-2-(8-(3,3,3-trifluoropropyl)-[1,2,4]triazolo[1,5-a]pyrazin-6-yl)-5H-pyrrolo[2,3-d]pyrimidin-6(7H)-one], the EC50 is 2490 nM.

Take `Nc1nc(-c2cn3ncnc3c(CCC(F)(F)C(F)(F)F)n2)nc2c1C(c1ccccn1)(C1CC1)C(=O)N2` (stereo not drawn) [Example 114A, 4-amino-5-cyclopropyl-2-(8-(3,3,4,4,4-pentafluorobutyl)-[1,2,4]triazolo[1,5-a]pyrazin-6-yl)-5-(pyridin-2-yl)-5,7-dihydro-6H-pyrrolo[2,3-d]pyrimidin-6-one]: the EC50 was determined as 144 nM.

Consider `Nc1nc(-c2cn3ncnc3c(CCC(F)(F)C(F)(F)F)n2)nc2c1C(c1nnc(C3CC3)o1)(C1CC1)C(=O)N2` (stereo not drawn) [Example 107A, 4-amino-5-cyclopropyl-5-(5-cyclopropyl-1,3,4-oxadiazol-2-yl)-2-(8-(3,3,4,4,4-pentafluorobutyl)-[1,2,4]triazolo[1,5-a]pyrazin-6-yl)-5H-pyrrolo[2,3-d]pyrimidin-6(7H)-one], for which the EC50 is 74.7 nM.

Still in this assay, the particulars now being: CHO-K1/sGC cells, 1 hr at 37° C., cGMP by HTRF; presence or absence of 1 μM DETA-NO not given; read-out: % Act. (percent activation relative to maximum cGMP production of Compound A = 100%).
On to `CC1(c2cccc(F)c2)C(=O)Nc2nc(-c3cn4ncnc4c(CCC(F)(F)C(F)(F)F)n3)nc(N)c21` (stereo not drawn) [Example 14B, 4-amino-5-(3-fluorophenyl)-5-methyl-2 (8-(3,3,4,4,4-pentafluorobutyl)-[1,2,4]triazolo[1,5-a]pyrazin-6-yl)-5H-pyrrolo[2,3-d]pyrimidin-6(7H)-one], for which the Emax turned out to be 90%.
